{"source": "patent US7759510B2", "about": "“Platinum complexes and methods of use” (University of South Florida, priority 2003, dated 2010)", "key": {"Stat3 [1]": {"system": "Stat3", "assay": "Stat3 signaling, growth inhibition and apoptosis in cells that contain constitutive Stat3 activity", "assay_type": "cell-based", "settings": "Src-transformed mouse fibroblasts, human tumor cells of the breast, prostate, mouse melanoma cells", "description": "Methods of the invention comprise inhibiting function of a STAT by contacting a cell expressing a STAT with a platinum complex of the invention wherein the complex is taken in or otherwise provided inside the cell. Platinum complexes of the invention can physically interact with the DNA-binding domain of Stat3 and thereby disrupts its ability to bind to DNA."}, "Stat3 [2]": {"biological_target": "T1, Stat3 (Mus musculus, UniProt P42227)", "T1 construct": "Nuclear extracts were prepared from NIH3T3/hEGFR cell that overexpress human epidermal growth factor (EGF) receptor and stimulated with EGF; endogenous in cells; host or cells: NIH3T3/hEGFR fibroblasts, EGF-stimulated (6 ng/ml, 15 min), nuclear extract", "T1 sequence (P42227 whole entry)": "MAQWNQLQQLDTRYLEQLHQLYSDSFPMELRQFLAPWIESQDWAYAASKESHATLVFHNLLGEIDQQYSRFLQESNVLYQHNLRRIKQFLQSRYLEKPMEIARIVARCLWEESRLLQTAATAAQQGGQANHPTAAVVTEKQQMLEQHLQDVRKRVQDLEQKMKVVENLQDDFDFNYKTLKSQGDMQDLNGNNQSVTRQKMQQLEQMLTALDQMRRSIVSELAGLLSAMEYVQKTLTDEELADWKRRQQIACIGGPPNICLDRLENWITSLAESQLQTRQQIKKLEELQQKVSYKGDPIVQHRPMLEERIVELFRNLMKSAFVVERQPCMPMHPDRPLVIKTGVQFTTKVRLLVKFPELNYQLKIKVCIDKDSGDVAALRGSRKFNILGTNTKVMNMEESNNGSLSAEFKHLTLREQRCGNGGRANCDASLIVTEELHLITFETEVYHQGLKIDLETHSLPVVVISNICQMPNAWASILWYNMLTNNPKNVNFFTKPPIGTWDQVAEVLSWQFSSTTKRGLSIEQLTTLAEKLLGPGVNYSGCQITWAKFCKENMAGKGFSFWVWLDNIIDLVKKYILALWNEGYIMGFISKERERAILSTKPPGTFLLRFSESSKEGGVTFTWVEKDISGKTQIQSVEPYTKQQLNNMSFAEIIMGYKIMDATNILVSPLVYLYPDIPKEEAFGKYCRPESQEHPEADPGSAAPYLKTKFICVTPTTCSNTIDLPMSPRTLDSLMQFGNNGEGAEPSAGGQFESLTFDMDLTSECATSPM", "assay": "EMSA of nuclear extracts, Stat3 DNA-binding activity to hSIE probe", "assay_type": "biochemical", "settings": "in vitro", "description": "Nuclear Extract Preparation and Analysis by EMSA of HK-Designated Platinum Complexes.\nNuclear extracts were prepared from NIH3T3/hEGFR cell that overexpress human epidermal growth factor (EGF) receptor and stimulated with EGF (6 ng/ml) for 15 min. Nuclear extracts were pre-incubated with compounds for 30 min at room temperature prior to incubation with radiolabeled probe. The ^32P-labeled oligonucleotide probe used is hSIE (high affinity sis-inducible element, m67 variant, 5′-[…]-3′) (SEQ ID NO:1) that binds both Stat1 and Stat3.\nOther platinum (IV) complexes were evaluated for inhibitory activity against STAT DNA-binding in vitro."}, "[3]": {"assay": "Reduction of CPA-7 platinum complex by glutathione (UV kinetics at 226 nm)", "assay_type": "physicochemical", "settings": "20 μm CPA-7 in PBS/20% DMSO with 10 mM glutathione", "description": "FIGS. 5A-C show inertness of CPA-7 platinum complex to reduction by glutathione. 20 μm CPA-7 in PBS/20% DMSO with […]. […] Reduction is attributed to room light.\nFIGS. 5A-C show the inertness of CPA-7 to glutathione reduction. In the figures, 20 μm CPA-7 was added in PBS/20% DMSO with 10 mM glutathione. The readings were initiated in late evening where data points were collected every 10 minutes at the lambda max for CPA-7, 226 nm. […] Data was collected on a Varian Cary 50 fitted with a fibreoptic probe in the kinetics mode. The Cary 50 uses a pulsed Xenon lamp with discontinuous irradiation between readings. A 25-mL volumetric flask was used for the solution with a magnetic stirring bar at slow speed."}, "A549 cells": {"system": "A549 cells", "assay": "MTT assay, percent survival of A549 cells", "assay_type": "cell-based", "settings": "A549; for IC50: Table 2, read-out: Calculated IC 50 (uM concentration)"}}, "note": "Entries after “also recorded” stand apart in the source; their conditions may differ. Read-outs that look alike come from different tables or passages of the source."}
{"smiles": "O=[N+]([O-])[Pt]1([Cl])([Cl])([Cl])[NH]CC[NH]1", "note": "[CPA-1]", "values": [{"measurement": "Cell growth inhibition and apoptosis", "setting": "Stat3 [1]", "value": "induce cell growth inhibition and apoptosis"}, {"measurement": "Stat3 signaling function", "setting": "Stat3 [1]", "value": "abrogate Stat3 signaling function"}]}
{"smiles": "[NH2][Pt]([NH2])([Cl])([Cl])([Cl])[N+](=O)[O-]", "note": "[CPA-7]", "values": [{"measurement": "Disruption of Stat3 activity / ability to bind its consensus binding sequence", "setting": "Stat3 [2]", "value": "strongly disrupt Stat3 activity"}, {"measurement": "Reduction by glutathione (GSH)", "setting": "[3]", "value": "stability against GSH reduction; also recorded: not appreciably reduced by GSH"}, {"measurement": "Sensitivity to light (reduction by room light)", "setting": "[3]", "value": "sensitivity to light"}, {"measurement": "Cell growth inhibition and apoptosis", "setting": "Stat3 [1]", "value": "induce cell growth inhibition and apoptosis"}, {"measurement": "Stat3 signaling function", "setting": "Stat3 [1]", "value": "abrogate Stat3 signaling function"}]}
{"smiles": "Nc1cccc2c(=O)[nH][n]([Pt]([NH2])([NH2])([Cl])([Cl])[N+](=O)[O-])c(=O)c12", "note": "[CPA-51]", "values": [{"measurement": "Average Absorbance", "setting": "A549 cells; Table 1, 10 μM", "value": 2.4925}, {"measurement": "Percent Survival", "setting": "A549 cells; Table 1, 10 μM", "value": 105.5652, "unit": "%"}, {"measurement": "Average Absorbance", "setting": "A549 cells; Table 1, 20 μM", "value": 2.5760}, {"measurement": "Percent Survival", "setting": "A549 cells; Table 1, 20 μM", "value": 109.1017, "unit": "%"}, {"measurement": "Average Absorbance", "setting": "A549 cells; Table 1, 30 μM", "value": 2.3214}, {"measurement": "Percent Survival", "setting": "A549 cells; Table 1, 30 μM", "value": 98.3186, "unit": "%"}, {"measurement": "Average Absorbance", "setting": "A549 cells; Table 1, 40 μM", "value": 2.0616}, {"measurement": "Percent Survival", "setting": "A549 cells; Table 1, 40 μM", "value": 87.3152, "unit": "%"}, {"measurement": "Average Absorbance", "setting": "A549 cells; Table 1, 50 μM", "value": 1.3869}, {"measurement": "Percent Survival", "setting": "A549 cells; Table 1, 50 μM", "value": 58.7396, "unit": "%"}, {"measurement": "Average Absorbance", "setting": "A549 cells; Table 1, 60 μM", "value": 0.8807}, {"measurement": "Percent Survival", "setting": "A549 cells; Table 1, 60 μM", "value": 37.3004, "unit": "%"}, {"measurement": "Average Absorbance", "setting": "A549 cells; Table 1, 70 μM", "value": 1.0819}, {"measurement": "Percent Survival", "setting": "A549 cells; Table 1, 70 μM", "value": 45.8219, "unit": "%"}, {"measurement": "IC50", "setting": "A549 cells; linear trend from percent survival vs. concentration data of Table 1", "value": 61.2, "unit": "µM"}, {"measurement": "Average Absorbance", "setting": "A549 cells; Table 3, 10 μM", "value": 2.4744}, {"measurement": "Percent Survival", "setting": "A549 cells; Table 3, 10 μM", "value": 101.2895, "unit": "%"}, {"measurement": "Average Absorbance", "setting": "A549 cells; Table 3, 20 μM", "value": 2.4868}, {"measurement": "Percent Survival", "setting": "A549 cells; Table 3, 20 μM", "value": 101.7970, "unit": "%"}, {"measurement": "Average Absorbance", "setting": "A549 cells; Table 3, 30 μM", "value": 2.0998}, {"measurement": "Percent Survival", "setting": "A549 cells; Table 3, 30 μM", "value": 85.9552, "unit": "%"}, {"measurement": "Average Absorbance", "setting": "A549 cells; Table 3, 40 μM", "value": 1.4758}, {"measurement": "Percent Survival", "setting": "A549 cells; Table 3, 40 μM", "value": 60.4118, "unit": "%"}, {"measurement": "Average Absorbance", "setting": "A549 cells; Table 3, 50 μM", "value": 0.9352}, {"measurement": "Percent Survival", "setting": "A549 cells; Table 3, 50 μM", "value": 38.2824, "unit": "%"}, {"measurement": "Average Absorbance", "setting": "A549 cells; Table 3, 60 μM", "value": 0.7084}, {"measurement": "Percent Survival", "setting": "A549 cells; Table 3, 60 μM", "value": 28.9983, "unit": "%"}, {"measurement": "Average Absorbance", "setting": "A549 cells; Table 3, 70 μM", "value": 0.7058}, {"measurement": "Percent Survival", "setting": "A549 cells; Table 3, 70 μM", "value": 28.8919, "unit": "%"}, {"measurement": "Disruption of Stat3 activity / ability to bind its consensus binding sequence", "setting": "Stat3 [2]", "value": "strongly disrupt Stat3 activity"}]}
{"smiles": "[NH2][Pt]([NH2])([Cl])([Cl])([N]1C(=O)CC(C(=O)O)NC1=O)[N+](=O)[O-]", "note": "(stereo not shown) [CPA-55]", "values": [{"measurement": "Average Absorbance", "setting": "A549 cells; Table 1, 10 μM", "value": 2.4481}, {"measurement": "Percent Survival", "setting": "A549 cells; Table 1, 10 μM", "value": 103.6847, "unit": "%"}, {"measurement": "Average Absorbance", "setting": "A549 cells; Table 1, 20 μM", "value": 2.3731}, {"measurement": "Percent Survival", "setting": "A549 cells; Table 1, 20 μM", "value": 100.5082, "unit": "%"}, {"measurement": "Average Absorbance", "setting": "A549 cells; Table 1, 30 μM", "value": 2.3268}, {"measurement": "Percent Survival", "setting": "A549 cells; Table 1, 30 μM", "value": 98.5473, "unit": "%"}, {"measurement": "Average Absorbance", "setting": "A549 cells; Table 1, 40 μM", "value": 1.3780}, {"measurement": "Percent Survival", "setting": "A549 cells; Table 1, 40 μM", "value": 58.3626, "unit": "%"}, {"measurement": "IC50", "setting": "A549 cells; extrapolated from incomplete data (10-40 uM; CPA-31 10-30 μM), outside the measured range", "value": 54.2, "unit": "µM"}, {"measurement": "Average Absorbance", "setting": "A549 cells; Table 3, 10 μM", "value": 2.4587}, {"measurement": "Percent Survival", "setting": "A549 cells; Table 3, 10 μM", "value": 100.6468, "unit": "%"}, {"measurement": "Average Absorbance", "setting": "A549 cells; Table 3, 20 μM", "value": 2.4875}, {"measurement": "Percent Survival", "setting": "A549 cells; Table 3, 20 μM", "value": 101.8257, "unit": "%"}, {"measurement": "Average Absorbance", "setting": "A549 cells; Table 3, 30 μM", "value": 1.6902}, {"measurement": "Percent Survival", "setting": "A549 cells; Table 3, 30 μM", "value": 69.1883, "unit": "%"}, {"measurement": "Average Absorbance", "setting": "A549 cells; Table 3, 40 μM", "value": 0.6503}, {"measurement": "Percent Survival", "setting": "A549 cells; Table 3, 40 μM", "value": 26.6200, "unit": "%"}, {"measurement": "Average Absorbance", "setting": "A549 cells; Table 3, 50 μM", "value": 0.4894}, {"measurement": "Percent Survival", "setting": "A549 cells; Table 3, 50 μM", "value": 20.0336, "unit": "%"}, {"measurement": "Average Absorbance", "setting": "A549 cells; Table 3, 60 μM", "value": 0.7082}, {"measurement": "Percent Survival", "setting": "A549 cells; Table 3, 60 μM", "value": 28.9901, "unit": "%"}, {"measurement": "Average Absorbance", "setting": "A549 cells; Table 3, 70 μM", "value": 0.5733}, {"measurement": "Percent Survival", "setting": "A549 cells; Table 3, 70 μM", "value": 23.4680, "unit": "%"}, {"measurement": "Disruption of Stat3 activity / ability to bind its consensus binding sequence", "setting": "Stat3 [2]", "value": "strongly disrupt Stat3 activity"}]}
